# Experimental data as given in paper PMC7922534, “Searching for Peptide Inhibitors of T Regulatory Cell Activity by Targeting Specific Domains of FOXP3 Transcription Factor” (Biomedicines, 2021).
# Legend:
# [1] = system: murine CD4+CD25+ Treg cells; experiment: In vitro Treg inhibition: anti-CD3 stimulated effector T cells co-cultured with Treg cells, tritiated thymidine incorporation; type: cell-based, mouse; conditions: peptide 50 μM, BALB/c Teff 10^5 + Treg 10^4 cells/well, 3 days, tritiated thymidine
# Description: (§1) In vitro assays were carried out using (i) the Karpas 299 human cell line (ACC-31, DSMZ, Germany), derived from a human lymphoma with a regulatory T cell profile or (ii) using natural Treg cells isolated from the murine splenocytes. To evaluate the effect of peptides on the immunosuppressive activity of the Karpas 299 cell line, a “mixed lymphocyte reaction” (MLR) assay was carried out using peripheral blood mononuclear cells (PBMCs) from two donors (previously tested to induce a strong MLR reaction in co-culture) (1 × 10^5 cells/well per each PBMC) in the presence or absence of Karpas 299 (1 × 10^4 cells/well). Peptides were added at 50 μM to the co-cultures to evaluate their capacity to restore the production of interferon-gamma (IFN-γ) inhibited by Karpas 299. After 48 hours, the supernatants were extracted to measure interferon-gamma (IFN-γ) by means of a commercial ELISA (Pharmingen, San Diego, CA, US). In vitro assays for Treg inhibition using natural Treg cells: Murine CD4+CD25+ (Treg cells), and CD4+CD25-T-cells (effector T cells) were purified from murine spleen cells by using a murine regulatory T-cell isolation kit (Miltenyi Biotec, Bergisch Gladbach, Germany) according to the manufacturer’s instructions. The purity of the resulting T-cell populations was confirmed to be >95% by flow cytometry. Inhibition of murine T regulatory cell function was measured in an in vitro assay of T-cell stimulation. Effector T cells (10^5 cells/well) from BALB/c mice were stimulated in vitro with 2, 5 μg/mL of anti-mouse CD3 antibody (Pharmingen) in the presence/absence of purified Treg cells (10^4 cells/well) and the indicated peptides (50 μM). T-cell proliferation was measured 3 days later as previously described. Percentage of Treg inhibition was calculated using the following formula: % inhibition= 100*((cpm of Teff&Treg co-cultures in the presence of peptide - cpm of Teff&Treg co-cultures)/(cpm of Teff - cpm of Teff&Treg co-cultures)). The Institutional Review Board on Human Subjects (Clínica Universidad de Navarra, Ref 2016.118) approved this research, and informed consent was obtained from all blood donors.
# FOXP3/NFAT1 = experiment: FOXP3/NFAT interaction by Alphascreen; type: binding; conditions: alpha screen; Figure 6C
# Description: (§2) The screening of peptide binders to FOXP3 was performed by surface plasmon resonance (SPR) using a ProteOn XPR36 (Bio-Rad, Hercules CA, USA) optical biosensor. Recombinant protein FOXP3-6His produced and purified from E-coli was immobilized covalently onto a GLC sensor chip (Bio-Rad) using the coupling reagents sulfo-NHS (N-Hydroxysulfosuccinimide) and EDC (1-Ethyl-3-(3-dimethylaminopropyl) carbodiimide, (Bio-Rad) as previously described. Peptide solutions (10 μM) were injected by triplicate in running buffer (phosphate-buffered saline, 0.005% (v/v) Tween 20, pH 7.4) at a flow of 30 μL/min. The interspot signal (obtained in the chip surface not immobilized with protein) was used as reference. FOXP3/NFAT1 and FOXP3/AML1 interactions were analyzed by Alphascreen technology as previously described according to the manufacturer’s protocol (Perkin Elmer, Benelux). Reactions were performed in a 40 μL final volume in 96-well Optiwell microtiter plates (Perkin Elmer). […] FOXP3/AML1 interaction was measured following a similar protocol using FOXP3-GST and AML1-His proteins. Exposure of the reaction to direct light was avoided as much as possible, and the emission of light from the acceptor beads was measured in the EnVision plate reader after the indicated incubation period (Perkin Elmer, Benelux).
# Foxp3–NFAT interaction = experiment: Co-immunoprecipitation and Western blot of Flag-Foxp3 and HA-NFAT in HEK293 cells; type: cell-based; conditions: HEK293 cells transfected with Flag-Foxp3 and HA-NFAT, peptide 100 μM; Figure 7
# Description: HEK293 cells were cultured in Dulbecco modified Eagle medium (Invitrogen) supplemented with 8% heat-inactivated fetal calf serum (FCS), penicillin, and streptomycin (Invitrogen) at 37 °C and 5% CO2. Plasmids cells were grown to 50% confluence in 6-well plates (Nunc) and transfected with a mixture of 2 μg of DNA plasmids (1 μg of FLAG-FOXP3 (expressing Foxp3 linked to the DYKDDDDK peptide tag and 1 μg of HA-NFAT expressing NFAT linked to the […] peptide tag), kindly provided by Dr Paul, Coffer, Utrech, The Netherlands)) and 8 μL PEI (polyethylenimine) overnight; the next day, cells were treated with 393–403 L, 397–406 C, or an irrelevant peptide at 100 μM. Twenty four hour later, HEK 293 cells were lysed in NP40 lysis buffer (0.05 M Tris-HCl pH 7.5, 0.5% Nonidet P40, 0.15 M NaCl, 0.01 M EDTA) containing a HALT^TM protease inhibitor cocktail (ThermoScientific), and immunoprecipitation was performed utilizing anti-FLAG coupled beads (Sigma) during 2 h at 4 C. Beads were washed 3x in lysis buffer, boiled, and samples were separated by SDS-PAGE, electrophoretically transferred to polyvinylidene difluoride membrane (Millipore, Bedford, MA), and hybridized with antibodies as indicated. Immunocomplexes were detected using enhanced chemiluminescence (Biorad).
# [2] = cited from earlier work
# Text: (§3) We have also focused on the screening campaign of peptides derived from the FOXP3 FKH domain (Section 3.3). Although we identified several peptides encompassing the intermediate region of FKH with high capacity to bind to FOXP3, we focused on peptide […]-407, based on its ability to inhibit Treg activity in vitro.
# FOXP3:NFAT = conditions: cited from earlier work
# Text: as §3
# hepatocellular carcinoma = conditions: murine model of hepatocellular carcinoma; cited from earlier work
# Text: as §3
# T-cells = conditions: cited from earlier work
# Text: We focused on a peptide encompassing aminoacids 393–403, which correspond to a region implicated in FOXP/NFAT interaction, which is also key for Treg suppressive activity. FOXP3/NFAT interaction can regulate NFAT activity by (i) competing for binding to DNA [60, 61], (ii) by sequestering NFAT or other NFAT partners, or (iii) by forming a cooperative complex. The cooperative complex between FOXP3 and NFAT is required to repress the expression of the cytokine IL2, upregulate the expression of the Treg markers CTLA4 and CD25, and confer suppressor function. ...
# FOXP3 homodimerization [3] = experiment: FOXP3 dimerization by Alphascreen; type: binding; conditions: alpha screen
# [4] = system: Karpas 299 human cell line; experiment: Mixed lymphocyte reaction with Karpas 299 Treg cell line, IFN-γ by ELISA; type: cell-based; conditions: MLR of PBMCs from two donors + Karpas 299, peptide 50 μM, 48 h
# Description: as §1
# 4T1-FOXP3 cells = experiment: Proliferation of 4T1-Ctrl and 4T1-FOXP3 tumor cells in vitro; type: cell-based; conditions: peptide 50 μM, Figure 2C
# Description: The cell line 4T1-FOXP3 expressing FOXP3 was generated. 4T1-WT cells were transfected with empty pcDNA3.1 or with pcDNA3.1 FOXP3, expressing FOXP3 gene and neomycin (which confers resistance to G418 antibiotic) to generate 4T1-Ctrl and 4T1-Foxp3 cells. Briefly, 8 × 10^5 cells were seeded in 6-well culture plates one day prior to transfection. The cultures were 60–80% confluent at the time of transfection. Cells were transfected with 5 ug plasmid DNA per well for 6 hours using lipofectimine 2000 transfection reagent (Invitrogen). After 48 hours, 0.3 mg/mL of G418 drug (GIBCO) was added to the culture during 14 days for the selection of resistant cells. These cells were used in vitro to measure the effect of peptides to overcome the proliferative capacity inhibited by FOXP3. In addition, 4T1-FOXP3 and 4T1-Ctrl cells were injected in vivo (10^5 cells/ mouse) subcutaneously or intravenously to compare their capacity to induce tumors and lung metastases. Murine Lewis lung carcinoma expressing OVA, LLCOVA were kindly provided by Dr. Daniel Ajona (CIMA). The murine colon adenocarcinoma cell line MC38, LLOOVA, 4T1-Ctrl, and 4T1-FOXP3 were cultured in mouse medium (RPMI 1640, 10% fetal calf serum (Sigma), 100 U/mL penicillin, 100 μg/mL streptomycin (Invitrogene), […] Gentamicin (Gibco), 2 mM L-Glutamine (Lifetechnologies), […] β-mercaptoethanol (Sigma), and fungizone (GIBCO). All cell lines were cultured at 37 °C in a humidified atmosphere with 6.5% CO2.
# FOXP3 homodimerization [5] = conditions: cited from earlier work
# Text: (§4) A P60 peptide optimization program including alanine scanning, the introduction of D-aminoacids, or head-to-tail cyclization allowed us to improve its stability and efficacy in vitro and in vivo [23].
# FOXP3/AML1 [6] = conditions: cited from earlier work
# Text: as §4
# [7] = cited from earlier work; remark: listed apart in the source
# Description: (§5) The P60 peptide was able to improve the antitumor effect of other immunotherapeutic approaches constituting a potential candidate drug to inhibit Treg activity. An alanine scanning was conducted to identify key positions within the P60 sequence for FOXP3 binding P60. The introduct ...
# FOXP3 = conditions: cited from earlier work
# Description: as §5
# Treg = conditions: cited from earlier work
# Description: as §5
# FOXP3/AML1 [8] = experiment: FOXP3/AML1 interaction by Alphascreen; type: binding; conditions: Figure 3C
# Description: as §2
substance,measurement,setting,value
397–406 C: macrocycle consisting of a head-to-tail cyclization of peptide 397–406 (RVESEKGAVW; head-to-tail (backbone) cyclization),Treg inhibitory capacity in vitro (proliferation of effector T cells with anti-CD3 in presence of Treg),[1],improved the Treg inhibitory capacity
same,disruption of FOXP3-NFAT heterodimerization,FOXP3/NFAT1,retained the activity to impair Foxp3/NFAT interaction
same,interaction between Foxp3 and NFAT by co-immunoprecipitation,Foxp3–NFAT interaction,able to reduce significantly the interaction
"KCFVRVESEKG [F393–403, truncated version of peptide F393–407]",Treg inhibitory capacity in vitro (proliferation of effector T cells with anti-CD3 in presence of Treg),[1],able to inhibit Treg activity in vitro
same,interaction between Foxp3 and NFAT by co-immunoprecipitation,Foxp3–NFAT interaction,able to reduce significantly the interaction
same,pharmacokinetics in vivo,[2],poor pharmacokinetics in vivo
same,FOXP3:NFAT interaction,FOXP3:NFAT,able to inhibit FOXP3:NFAT interaction
same,antitumor activity of in vivo peptide administration,hepatocellular carcinoma,had antitumor activity
same,T-cell proliferation and cytokine production in response to TCR stimulation,T-cells,"enhanced T-cell proliferation and the production of cytokines IL-2, IFN-γ, or IL-17"
"KEKLSAMQAHLAGKM [p250–265, 15-mer peptide from the leuzin zipper domain of FOXP3]",Treg inhibitory capacity in vitro (proliferation of effector T cells with anti-CD3 in presence of Treg),[1],able to fully restore the proliferative capacity of effector T-cells
same,inhibitory activity on FOXP3 homodimerization,FOXP3 homodimerization [3],could not demonstrate an inhibitory activity
RDFQSFRKMWPFFAM [p60],Treg inhibitory capacity (Karpas MLR assays),[4],potential Treg inhibitory capacity
same,effect on tumor-suppressor activity of FOXP3 (proliferation of 4T1-FOXP3 versus 4T1-Ctrl cells),4T1-FOXP3 cells,does not alter the antitumor activity of FOXP3
same,FOXP3 dimerization,FOXP3 homodimerization [5],impairing FOXP3 dimerization
same,FOXP3/AML1 interaction,FOXP3/AML1 [6],impairing
same,ability to enter into the cells,[7],able to enter into the cells
same,FOXP3 nuclear translocation,FOXP3,impair FOXP3 nuclear translocation
same,Treg activity in vitro and in vivo,Treg,inhibit Treg activity in vitro and in vivo
SLFAVRRHLWGSHGN [F304–318],Treg inhibitory capacity in vitro (proliferation of effector T cells with anti-CD3 in presence of Treg),[1],able to inhibit Treg activity
same,disruption of FOXP3/AML1 heterodimerization,FOXP3/AML1 [8],able to impair FOXP3/AML1 heterodimerization
